Assay results taken from ChEMBL document CHEMBL1201862, “PubChem BioAssay data set” (2004).
Counter-ions that a name gives are not always drawn. Active and inactive are the calls of the source.

Columns and labels:
[1] = target: NACHT, LRR and PYD domains-containing protein 3 (Homo sapiens, UniProt Q96P20); assay: NALP3 inhibitors in yeast, dose response, luminescent (AID 488799); type: functional
Fatty acid synthase [2] = target: T1, Fatty acid synthase (Homo sapiens, UniProt P49327); assay: FAS thioesterase domain inhibitors, dose response, biochemical, kinetic fluorescence intensity (AID 624326); type: functional;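 further: rate of fluorescence rise from hydrolysis of a fluorogenic O-methyl fluorescein ester substrate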
X-box-binding protein 1 = X-box-binding protein 1 (Homo sapiens, UniProt P17861); type: functional, Cricetulus griseus;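 further: confirmatory dose-response counter-screen serving a CHOP assay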
Fatty acid synthase [3] = target: T1, Fatty acid synthase; assay: FAS thioesterase domain inhibitors, dose response, biochemical, endpoint fluorescence intensity, uHTS hits (AID 624327); type: functional;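 further: fluorescence from hydrolysis of an O-methyl fluorescein acyl ester substrate by the enzyme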
Bcl-2-like protein 10 = Bcl-2-like protein 10 (Homo sapiens, UniProt Q9HD36); assay: displacers of TR3 peptide from Bcl-B, primary screen, selectivity assay for Bfl-1 inhibitor project, biochemical, fluorescence polarization, FITC-TR3 peptide (AID 748);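 further: fluorescence polarization from a fluorescein-labelled TR3 peptide binding purified Bcl-B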
[4] = target: Dual specificity protein phosphatase 3 (Homo sapiens, UniProt P51452); assay: VHR1 inhibitor Ki determination, SAR follow-up, biochemical, colorimetric (AID 2004)
[5] = target: G2/mitotic-specific cyclin-B1 (Homo sapiens, UniProt P14635); assay: G2/M cell cycle arrest in HeLa, late-stage follow-up, mechanism study for Wee1 degradation inhibitor project, FACS, panel member Cyclin B Degradation (AID 2088)
Wee1-like protein kinase = Wee1-like protein kinase (Homo sapiens, UniProt P30291); assay: G2/M cell cycle arrest in HeLa, late-stage follow-up, mechanism study for Wee1 degradation inhibitor project, FACS, panel member Wee1 Degradation (AID 2088)
[6] = target: Dual specificity tyrosine-phosphorylation-regulated kinase 1A (Rattus norvegicus, UniProt Q63470); type: biochemical, Homo sapiens
[7] = target: Cyclin-dependent kinase 5/CDK5 activator 1 (Homo sapiens, UniProt Q00535); assay: CDK5/p35 kinase inhibitors, dose response, biochemical, cherry-picked samples, set 2 (AID 504545)
Cytochrome P450 1A2 = target: T2, Cytochrome P450 1A2 (Homo sapiens, UniProt P05177);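 further: PubChem cytochrome P450 panel assay, CYP1A2 panel member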
T2 sequence (P05177 whole entry): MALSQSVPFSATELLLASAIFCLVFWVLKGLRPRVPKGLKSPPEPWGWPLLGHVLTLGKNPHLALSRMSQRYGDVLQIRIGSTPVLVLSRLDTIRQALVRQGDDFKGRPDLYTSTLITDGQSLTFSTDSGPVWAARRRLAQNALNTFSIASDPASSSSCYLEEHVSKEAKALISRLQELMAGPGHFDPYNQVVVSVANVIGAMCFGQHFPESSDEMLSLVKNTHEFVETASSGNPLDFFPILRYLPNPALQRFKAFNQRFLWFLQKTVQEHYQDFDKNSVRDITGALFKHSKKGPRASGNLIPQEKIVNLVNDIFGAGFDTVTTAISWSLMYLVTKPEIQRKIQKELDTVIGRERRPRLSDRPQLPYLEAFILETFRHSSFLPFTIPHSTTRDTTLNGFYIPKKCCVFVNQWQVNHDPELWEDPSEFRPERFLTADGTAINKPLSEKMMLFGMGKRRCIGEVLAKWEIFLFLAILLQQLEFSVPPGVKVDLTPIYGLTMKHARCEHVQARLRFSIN

[8] = target: T3, Long-chain-fatty-acid--AMP ligase FadD28 (Mycobacterium tuberculosis, UniProt P9WQ59); assay: Fluorescence polarization aasay to screen for inhibitors that compete for the binding of FadD28 to a bisubstrate Measured in Biochemical System Using Plate Reader - 2147-01_Inhibitor_Dose_CherryPick_Activity.; type: functional, Mycobacterium tuberculosis H37Rv
T3 sequence (P9WQ59 whole entry): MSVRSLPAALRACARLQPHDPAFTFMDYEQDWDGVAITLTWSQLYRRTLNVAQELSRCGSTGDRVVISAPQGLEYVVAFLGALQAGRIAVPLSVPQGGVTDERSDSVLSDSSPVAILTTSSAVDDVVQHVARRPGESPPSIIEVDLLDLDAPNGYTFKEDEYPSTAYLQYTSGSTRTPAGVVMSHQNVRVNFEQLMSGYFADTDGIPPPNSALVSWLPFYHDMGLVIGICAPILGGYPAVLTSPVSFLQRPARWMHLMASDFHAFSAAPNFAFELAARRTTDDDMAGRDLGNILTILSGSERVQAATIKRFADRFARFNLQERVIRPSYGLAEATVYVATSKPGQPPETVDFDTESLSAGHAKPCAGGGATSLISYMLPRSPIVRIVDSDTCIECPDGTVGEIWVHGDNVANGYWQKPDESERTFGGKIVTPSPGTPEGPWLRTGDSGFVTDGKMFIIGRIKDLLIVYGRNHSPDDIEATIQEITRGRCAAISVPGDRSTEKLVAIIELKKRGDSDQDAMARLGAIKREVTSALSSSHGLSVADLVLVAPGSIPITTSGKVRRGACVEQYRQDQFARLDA

Cytochrome P450 3A4 = Cytochrome P450 3A4 (Homo sapiens, UniProt P08684); conditions: Potency;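 further: confirmatory qHTS run detecting inhibitors and substrates of CYP3A4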
Large T antigen = Large T antigen (Simian virus 40, UniProt P03070); type: functional, Betapolyomavirus macacae;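 further: Confirmatory-stage PubChem screen for compounds that inhibit SV40 T antigen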
Protein Rev = Protein Rev (Human immunodeficiency virus type 1 group M subtype B (isolate HXB2)(HIV-1), UniProt P04618); assay: inhibitors of Rev binding to RRE RNA, dose response, biochemical, fluorescence polarization, HIV-1 (AID 434976); design: species or system Human immunodeficiency virus 1
[9] = target: Female germline-specific tumor suppressor gld-1 (Caenorhabditis elegans, UniProt Q17339); assay: inhibitors of GLD-1 binding to TGE RNA, dose response, biochemical, fluorescence polarization, C. elegans (AID 2802);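 further: fluorescence polarization of labeled TGE RNA bound by purified gld-1 protein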
[10] = target: T4, Voltage-dependent T-type calcium channel subunit alpha-1H (Homo sapiens, UniProt O95180); type: functional
[11] = target: T5, Endoribonuclease toxin MazF (Escherichia coli K-12, UniProt P0AE70); assay: MazF toxin RNase activators, dose response, biochemical, fluorescence, single-stranded RNA substrate, uHTS hits (AID 588481); type: functional
T5 sequence (P0AE70 whole entry): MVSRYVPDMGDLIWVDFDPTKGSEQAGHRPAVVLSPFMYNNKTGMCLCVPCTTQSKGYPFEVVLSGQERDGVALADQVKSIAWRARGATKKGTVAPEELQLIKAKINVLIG

[12] = target: T5, Endoribonuclease toxin MazF; assay: fluorescent RNA oligo signal without MazF, dose response, counter-screen for MazEF activator project, biochemical, fluorescence, single-stranded RNase substrate (AID 588502); type: functional
[13] = target: T4, Voltage-dependent T-type calcium channel subunit alpha-1H; assay: Inhibitors of T-Type Calcium Channels. [Related pubchem assays (depositor defined):AID449739, AID463087, AID489005, AID493041, AID504579, AID504584, AID504619, AID504628]; type: functional
[14] = Cytotoxicity screening for potential Inhibitors of Bacterial Capsule Biogenesis. [Related pubchem assays (depositor defined):AID488970]; type: functional
Vero = assay: cells; type: functional, cell-based; conditions: Chlorocebus sabaeus
[15] = target: T6, Small ubiquitin-related modifier 1 (Homo sapiens, UniProt P63165); assay: inhibitors of SUMO1 partner interactions, dose response, biochemical, FRET (AID 624383); type: functional; conditions: read-out: IC50_Mean
Prothrombin = Prothrombin (Bos taurus, UniProt P00735); assay: thrombin inhibition, dose response, biochemical, fluorescence polarization, uHTS hits (AID 602369); type: functional
[16] = target: T6, Small ubiquitin-related modifier 1; assay: inhibitors of SUMO1 peptide binding, dose response, biochemical, fluorescence polarization, uHTS hits (AID 624382); type: functional; conditions: read-out: IC50_Mean
[17] = target: 26S proteasome non-ATPase regulatory subunit 14 (Homo sapiens, UniProt O00487); assay: inhibition of proteasome subunit RPN11 – biochemical, fluorescence polarization, uHTS hits, confirmation (AID 602368); type: functional
[18] = target: 72 kDa type IV collagenase (Homo sapiens, UniProt P08253); assay: Dose Response validation of uHTS RPN11 inhibitor hits using a MMP-2 Fluorescence assay.; type: functional
cells [19] = type: functional, cell-based
cells [20] = type: functional, cell-based; remark: listed apart in the source
[21] = cytotoxicity in KRAS-transformed pancreatic duct cells, primary screen, cell-based, fluorescence, HTS (AID 431); type: functional; conditions: Homo sapiens;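 further: cell line used: HPDE-C7K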
Hexokinase HKDC1 = target: T7, Hexokinase HKDC1 (Homo sapiens, UniProt Q2TB90); assay: HKDC1 hexokinase inhibitors, dose response, biochemical, W721R variant (AID 504729); type: functional
T7 sequence (Q2TB90 whole entry): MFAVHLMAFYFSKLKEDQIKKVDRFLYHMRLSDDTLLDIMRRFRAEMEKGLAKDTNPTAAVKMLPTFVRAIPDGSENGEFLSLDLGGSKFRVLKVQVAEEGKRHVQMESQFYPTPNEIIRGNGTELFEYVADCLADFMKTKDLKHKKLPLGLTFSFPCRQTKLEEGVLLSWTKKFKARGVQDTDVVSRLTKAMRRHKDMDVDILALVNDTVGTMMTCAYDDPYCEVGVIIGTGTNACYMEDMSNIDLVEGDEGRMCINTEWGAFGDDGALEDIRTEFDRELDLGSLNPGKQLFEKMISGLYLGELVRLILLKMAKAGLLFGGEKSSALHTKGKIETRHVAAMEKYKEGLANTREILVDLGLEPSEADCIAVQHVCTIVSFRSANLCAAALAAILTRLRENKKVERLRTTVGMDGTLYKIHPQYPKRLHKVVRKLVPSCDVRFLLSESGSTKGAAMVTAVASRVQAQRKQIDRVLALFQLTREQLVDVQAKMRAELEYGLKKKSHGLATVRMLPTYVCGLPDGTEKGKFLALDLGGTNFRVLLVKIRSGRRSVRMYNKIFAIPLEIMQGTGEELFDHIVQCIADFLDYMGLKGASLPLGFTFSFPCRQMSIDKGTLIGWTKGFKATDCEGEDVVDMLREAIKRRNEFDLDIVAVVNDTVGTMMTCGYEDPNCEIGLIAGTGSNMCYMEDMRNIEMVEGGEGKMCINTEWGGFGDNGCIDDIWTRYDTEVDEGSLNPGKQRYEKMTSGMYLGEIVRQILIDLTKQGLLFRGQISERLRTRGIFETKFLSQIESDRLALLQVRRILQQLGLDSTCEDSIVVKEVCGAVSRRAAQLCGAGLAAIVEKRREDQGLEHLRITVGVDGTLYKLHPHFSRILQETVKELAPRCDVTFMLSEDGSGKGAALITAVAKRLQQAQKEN

[22] = cytotoxicity in HEK-293T cells, dose response, cytotoxicity control for BCR NF-kB inhibitor project, luminescence, B-cell screen hits (AID 489021); type: functional, cell-based;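 further: HEK-293T cells carrying an NF-kB luciferase reporter; cells exposed to compound for about 14 hours before viability readout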
[23] = cytotoxicity in HPDE-C7 cells, cell-based, fluorescence, HTS (AID 430); type: functional; conditions: Homo sapiens

T6 sequence (P63165 whole entry): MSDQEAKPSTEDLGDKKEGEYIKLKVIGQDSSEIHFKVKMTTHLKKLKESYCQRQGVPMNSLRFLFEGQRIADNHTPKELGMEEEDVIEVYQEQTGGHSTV
T1 sequence (P49327 whole entry, the tested form may be a part): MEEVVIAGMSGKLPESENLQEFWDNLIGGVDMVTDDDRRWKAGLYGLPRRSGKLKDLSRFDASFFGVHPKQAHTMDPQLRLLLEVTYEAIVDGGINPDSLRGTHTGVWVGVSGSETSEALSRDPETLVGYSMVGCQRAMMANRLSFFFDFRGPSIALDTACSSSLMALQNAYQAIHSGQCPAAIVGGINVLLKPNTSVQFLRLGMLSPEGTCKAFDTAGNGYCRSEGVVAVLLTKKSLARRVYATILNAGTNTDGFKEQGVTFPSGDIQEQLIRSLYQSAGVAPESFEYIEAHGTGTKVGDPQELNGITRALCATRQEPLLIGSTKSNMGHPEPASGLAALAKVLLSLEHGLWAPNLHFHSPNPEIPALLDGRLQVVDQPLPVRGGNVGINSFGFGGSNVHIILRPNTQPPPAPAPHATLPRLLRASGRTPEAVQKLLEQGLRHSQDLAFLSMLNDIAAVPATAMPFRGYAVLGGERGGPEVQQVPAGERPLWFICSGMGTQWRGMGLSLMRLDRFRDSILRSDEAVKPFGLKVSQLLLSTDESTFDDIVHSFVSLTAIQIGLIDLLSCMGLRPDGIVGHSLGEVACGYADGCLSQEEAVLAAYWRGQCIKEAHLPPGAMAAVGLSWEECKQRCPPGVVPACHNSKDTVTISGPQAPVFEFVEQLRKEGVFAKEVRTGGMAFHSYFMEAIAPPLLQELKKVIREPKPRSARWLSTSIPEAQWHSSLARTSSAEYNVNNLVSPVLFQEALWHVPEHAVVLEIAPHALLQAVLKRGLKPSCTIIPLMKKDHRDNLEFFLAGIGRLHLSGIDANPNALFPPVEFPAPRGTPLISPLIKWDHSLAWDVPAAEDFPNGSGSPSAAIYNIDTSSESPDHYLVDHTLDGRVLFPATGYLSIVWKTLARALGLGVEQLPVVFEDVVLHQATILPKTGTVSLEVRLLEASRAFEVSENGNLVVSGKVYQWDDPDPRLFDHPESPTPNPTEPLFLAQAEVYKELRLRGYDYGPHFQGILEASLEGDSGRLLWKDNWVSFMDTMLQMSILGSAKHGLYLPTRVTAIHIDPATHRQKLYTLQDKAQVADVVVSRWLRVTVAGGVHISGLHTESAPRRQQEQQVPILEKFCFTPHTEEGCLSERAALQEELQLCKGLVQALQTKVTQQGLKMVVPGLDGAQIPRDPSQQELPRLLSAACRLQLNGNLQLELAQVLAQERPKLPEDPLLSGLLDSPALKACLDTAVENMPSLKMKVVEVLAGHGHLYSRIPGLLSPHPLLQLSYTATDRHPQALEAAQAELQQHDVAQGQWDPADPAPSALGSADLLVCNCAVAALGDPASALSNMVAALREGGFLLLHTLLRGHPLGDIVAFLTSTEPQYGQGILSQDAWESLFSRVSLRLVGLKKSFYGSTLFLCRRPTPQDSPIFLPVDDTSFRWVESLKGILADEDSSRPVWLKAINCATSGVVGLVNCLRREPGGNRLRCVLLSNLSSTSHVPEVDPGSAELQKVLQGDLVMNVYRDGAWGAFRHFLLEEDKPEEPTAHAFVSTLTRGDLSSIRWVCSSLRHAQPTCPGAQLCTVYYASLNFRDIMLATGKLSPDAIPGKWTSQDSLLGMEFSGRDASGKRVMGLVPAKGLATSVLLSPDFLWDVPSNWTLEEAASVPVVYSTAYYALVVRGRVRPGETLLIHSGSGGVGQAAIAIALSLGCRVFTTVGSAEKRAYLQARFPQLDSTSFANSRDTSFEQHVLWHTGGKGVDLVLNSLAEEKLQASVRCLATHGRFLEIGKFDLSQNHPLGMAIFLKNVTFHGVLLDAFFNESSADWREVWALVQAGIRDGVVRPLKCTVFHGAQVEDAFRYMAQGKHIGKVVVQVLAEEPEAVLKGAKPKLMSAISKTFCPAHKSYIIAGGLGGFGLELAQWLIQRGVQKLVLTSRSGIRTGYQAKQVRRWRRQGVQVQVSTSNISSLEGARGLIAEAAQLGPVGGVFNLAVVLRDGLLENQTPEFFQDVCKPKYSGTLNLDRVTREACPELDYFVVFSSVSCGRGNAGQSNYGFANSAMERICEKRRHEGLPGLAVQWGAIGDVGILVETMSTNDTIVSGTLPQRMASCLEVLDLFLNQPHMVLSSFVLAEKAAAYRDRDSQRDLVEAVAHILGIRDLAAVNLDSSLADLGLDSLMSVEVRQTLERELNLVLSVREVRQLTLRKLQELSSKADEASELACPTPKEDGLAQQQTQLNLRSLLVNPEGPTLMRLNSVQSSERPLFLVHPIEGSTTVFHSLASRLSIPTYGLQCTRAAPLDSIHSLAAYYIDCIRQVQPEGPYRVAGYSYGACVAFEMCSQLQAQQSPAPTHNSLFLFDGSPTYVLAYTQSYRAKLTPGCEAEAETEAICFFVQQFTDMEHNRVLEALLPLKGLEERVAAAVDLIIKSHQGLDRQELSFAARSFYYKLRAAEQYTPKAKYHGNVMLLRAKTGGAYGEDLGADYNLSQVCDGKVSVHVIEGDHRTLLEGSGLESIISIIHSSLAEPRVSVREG
T4 sequence (O95180 whole entry): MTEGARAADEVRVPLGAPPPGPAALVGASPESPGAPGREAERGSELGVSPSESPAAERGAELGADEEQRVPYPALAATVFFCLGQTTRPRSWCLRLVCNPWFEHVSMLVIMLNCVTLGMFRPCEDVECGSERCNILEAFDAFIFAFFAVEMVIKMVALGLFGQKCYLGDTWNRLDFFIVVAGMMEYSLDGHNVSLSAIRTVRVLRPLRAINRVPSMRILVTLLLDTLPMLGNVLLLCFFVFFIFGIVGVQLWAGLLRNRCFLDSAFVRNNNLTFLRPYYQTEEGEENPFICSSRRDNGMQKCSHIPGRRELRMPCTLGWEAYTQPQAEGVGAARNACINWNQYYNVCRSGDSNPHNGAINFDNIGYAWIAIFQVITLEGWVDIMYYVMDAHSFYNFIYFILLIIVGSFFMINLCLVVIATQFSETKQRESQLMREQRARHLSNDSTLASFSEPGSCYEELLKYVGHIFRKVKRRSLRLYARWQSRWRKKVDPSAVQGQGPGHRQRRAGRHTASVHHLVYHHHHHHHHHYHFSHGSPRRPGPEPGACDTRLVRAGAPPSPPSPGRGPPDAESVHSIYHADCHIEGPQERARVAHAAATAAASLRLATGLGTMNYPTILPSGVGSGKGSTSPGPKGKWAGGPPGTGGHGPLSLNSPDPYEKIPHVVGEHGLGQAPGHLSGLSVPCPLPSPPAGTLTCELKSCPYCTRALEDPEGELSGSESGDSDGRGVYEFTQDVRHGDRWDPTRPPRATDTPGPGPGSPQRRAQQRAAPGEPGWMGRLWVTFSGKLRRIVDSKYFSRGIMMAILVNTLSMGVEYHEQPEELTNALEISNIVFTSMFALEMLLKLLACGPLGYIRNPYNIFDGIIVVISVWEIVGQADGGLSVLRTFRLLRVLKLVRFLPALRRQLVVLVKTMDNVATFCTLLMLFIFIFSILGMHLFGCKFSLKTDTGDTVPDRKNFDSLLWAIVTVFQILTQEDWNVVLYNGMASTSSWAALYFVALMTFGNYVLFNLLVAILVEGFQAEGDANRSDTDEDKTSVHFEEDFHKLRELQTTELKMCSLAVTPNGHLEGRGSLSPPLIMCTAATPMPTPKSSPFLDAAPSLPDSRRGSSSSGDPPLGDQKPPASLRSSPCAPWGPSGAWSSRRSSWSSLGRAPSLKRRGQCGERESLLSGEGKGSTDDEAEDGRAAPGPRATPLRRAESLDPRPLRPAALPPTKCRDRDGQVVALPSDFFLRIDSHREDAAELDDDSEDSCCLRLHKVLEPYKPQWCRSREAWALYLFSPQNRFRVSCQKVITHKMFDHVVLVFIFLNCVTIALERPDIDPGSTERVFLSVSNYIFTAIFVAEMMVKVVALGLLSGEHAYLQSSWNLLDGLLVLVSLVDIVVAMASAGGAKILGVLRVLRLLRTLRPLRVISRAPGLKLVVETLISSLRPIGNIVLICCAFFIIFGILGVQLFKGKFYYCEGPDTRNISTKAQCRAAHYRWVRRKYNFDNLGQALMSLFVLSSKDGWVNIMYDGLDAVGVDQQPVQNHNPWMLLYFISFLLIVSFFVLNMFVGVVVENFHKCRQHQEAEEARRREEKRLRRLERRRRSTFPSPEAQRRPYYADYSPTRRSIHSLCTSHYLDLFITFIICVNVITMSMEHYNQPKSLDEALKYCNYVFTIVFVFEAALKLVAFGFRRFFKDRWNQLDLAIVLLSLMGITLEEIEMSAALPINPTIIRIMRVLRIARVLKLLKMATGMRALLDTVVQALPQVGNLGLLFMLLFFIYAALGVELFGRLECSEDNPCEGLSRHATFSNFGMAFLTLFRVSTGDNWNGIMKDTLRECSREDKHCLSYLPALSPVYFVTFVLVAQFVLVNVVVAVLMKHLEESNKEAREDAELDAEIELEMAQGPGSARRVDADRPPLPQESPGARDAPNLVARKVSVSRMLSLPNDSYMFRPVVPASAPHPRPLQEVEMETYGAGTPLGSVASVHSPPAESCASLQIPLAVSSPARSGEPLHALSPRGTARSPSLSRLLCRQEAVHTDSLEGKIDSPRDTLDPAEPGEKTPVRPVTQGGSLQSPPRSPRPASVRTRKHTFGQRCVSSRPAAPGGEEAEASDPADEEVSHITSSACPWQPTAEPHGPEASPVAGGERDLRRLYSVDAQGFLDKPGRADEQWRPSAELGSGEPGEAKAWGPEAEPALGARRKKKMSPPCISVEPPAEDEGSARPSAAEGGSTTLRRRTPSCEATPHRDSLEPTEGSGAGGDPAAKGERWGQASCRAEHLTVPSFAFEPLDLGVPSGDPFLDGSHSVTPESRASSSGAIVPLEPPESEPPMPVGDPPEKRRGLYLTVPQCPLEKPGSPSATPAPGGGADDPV
Chain of Protein Rev (P04618 whole entry): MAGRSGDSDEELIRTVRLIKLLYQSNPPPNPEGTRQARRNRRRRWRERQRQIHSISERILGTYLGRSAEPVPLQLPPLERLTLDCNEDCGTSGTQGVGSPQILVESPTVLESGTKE

Structure (SMILES): CC(N)C(=O)OC(C)(C)Cc1ccc(Cl)cc1 (stereo not drawn) [ALAPROCLATE HYDROCHLORIDE]
- IC50 [1]: 8.02 µM (active)

Structure (SMILES): CCCCCC1CC(CC(=O)Nc2ccc([N+](=O)[O-])cc2)C(=O)O1 (stereo not drawn)
- IC50 (Fatty acid synthase [2]): 12.5 µM (active)
- Absolute IC50 (XBP1) (X-box-binding protein 1): < 10 µM
- IC50 (Fatty acid synthase [3]): 16.8 µM (active)

Structure (SMILES): Cc1ccc2cccc(S(=O)(=O)Nc3ccc4c(c3)OCO4)c2n1
- IC50 (Bcl-2-like protein 10): > 100 µM (inactive)

Structure (SMILES): Cc1cc2c(nc3s/c(=C/c4ccccc4)c(=O)n32)c(Br)c1C
- Ki [4]: 28.5 µM (inactive)

Structure (SMILES): COc1ccc(NC(=O)CCCOc2cc(=O)n(C)c3ccccc23)cc1Cl
- EC50 [5]: > 49.7 µM (inactive)
- EC50 (Wee1-like protein kinase): > 49.7 µM (inactive)

Structure (SMILES): O=C1NC(=O)C(c2ccccc2[N+](=O)[O-])=C1Nc1ccc(O)c(Cl)c1
- AC50 [6]: 3.11 µM (active)
- AC50 [7]: 5.56 µM (active)
- AC50 (Cytochrome P450 1A2): 31.6 µM (inconclusive)
- AC50 [8]: 89.1 µM (active)
- AC50 (Cytochrome P450 3A4): 12.6 µM (inconclusive)
- IC50 (Large T antigen): 55.4 µM (active)

Structure (SMILES): CC(OC(=O)/C(C#N)=C/c1ccc(N(C)C)cc1)C(=O)NCc1ccco1 (stereo not drawn)
- IC50 (Protein Rev): > 75.5 µM (not active)
- IC50 [9]: 6.63 µM (active)

Structure (SMILES): CCN(CC)c1ccc2cc(-c3nnc(-c4ccccc4)o3)c(=O)oc2c1
- EC50 [10]: 0.931 µM (active)
- EC50 [11]: > 99 µM (inactive)
- EC50 [12]: > 99 µM (inactive)
- EC50 [13]: 3.19 µM (active)

Structure (SMILES): Cc1ccccc1NC(=NCCCN1CC1)Nc1ccccc1C
- CC50 [14]: 7.68 µM (active)
- IC50 (Vero): 20.3 µM (active)
- IC50 [15]: 2.8 µM (active)
- IC50 (Prothrombin): 30 µM (active)
- IC50 [16]: > 66.6 µM (inactive)
- IC50 [17]: 12.5 µM (active)
- IC50 [18]: > 100 µM (inactive)

Structure (SMILES): Cc1ccc(C)c(-n2nnnc2Sc2nnnn2-c2ccccc2)c1
- EC50 (cells [19]): > 350 µM (not active)
- EC50 (cells [20]): > 350 µM (not active)
- EC50 [21]: 9.95 µM (active)
- IC50 (Hexokinase HKDC1): 22.6 µM (inactive)
- IC50 [22]: > 80 µM (inactive)
- EC50 [23]: 8.15 µM (active)
